Experimental data: publication PMC6240031, “CYP6AE gene cluster knockout in Helicoverpa armigera reveals role in detoxification of phytochemicals and insecticides” (Nature Communications, 2018)

What was measured:
Experiment in all cases: substrate depletion, UPLC-MS/MS
Assay type in all cases: biochemical
Settings in all cases: 20 uM substrate, NADPH regeneration system, 0.1 M potassium phosphate pH 7.4, 30 C, 1 h, microsomes
CYP6AE14 = target: T1, CYP6AE14 (Helicoverpa armigera, UniProt A0A068EU65)
T1 construct: full ORF, baculovirus (Bac-to-Bac) in High Five cells, microsomes, co-expressed with H. armigera cytochrome P450 reductase (HaCPR)
T1 sequence (A0A068EU65 1-526): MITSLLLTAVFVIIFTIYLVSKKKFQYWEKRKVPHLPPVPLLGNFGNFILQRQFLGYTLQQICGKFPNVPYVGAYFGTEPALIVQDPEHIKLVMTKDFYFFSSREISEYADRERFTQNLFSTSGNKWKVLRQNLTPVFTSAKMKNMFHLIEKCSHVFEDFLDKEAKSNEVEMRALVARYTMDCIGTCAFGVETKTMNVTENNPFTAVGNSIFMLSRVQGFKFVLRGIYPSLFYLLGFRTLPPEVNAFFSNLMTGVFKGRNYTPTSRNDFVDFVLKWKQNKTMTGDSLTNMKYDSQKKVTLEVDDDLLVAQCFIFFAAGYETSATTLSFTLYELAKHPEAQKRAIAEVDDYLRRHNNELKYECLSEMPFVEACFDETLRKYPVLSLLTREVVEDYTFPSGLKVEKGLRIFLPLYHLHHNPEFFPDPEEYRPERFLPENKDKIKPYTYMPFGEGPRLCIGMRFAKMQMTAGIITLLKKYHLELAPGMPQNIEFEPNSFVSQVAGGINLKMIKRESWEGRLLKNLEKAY

CYP6AE11 = target: T2, CYP6AE11 (Helicoverpa armigera, UniProt A0A068ETU4)
T2 construct: full ORF, baculovirus (Bac-to-Bac) in High Five cells, microsomes, co-expressed with H. armigera cytochrome P450 reductase (HaCPR)
T2 sequence (A0A068ETU4 1-522): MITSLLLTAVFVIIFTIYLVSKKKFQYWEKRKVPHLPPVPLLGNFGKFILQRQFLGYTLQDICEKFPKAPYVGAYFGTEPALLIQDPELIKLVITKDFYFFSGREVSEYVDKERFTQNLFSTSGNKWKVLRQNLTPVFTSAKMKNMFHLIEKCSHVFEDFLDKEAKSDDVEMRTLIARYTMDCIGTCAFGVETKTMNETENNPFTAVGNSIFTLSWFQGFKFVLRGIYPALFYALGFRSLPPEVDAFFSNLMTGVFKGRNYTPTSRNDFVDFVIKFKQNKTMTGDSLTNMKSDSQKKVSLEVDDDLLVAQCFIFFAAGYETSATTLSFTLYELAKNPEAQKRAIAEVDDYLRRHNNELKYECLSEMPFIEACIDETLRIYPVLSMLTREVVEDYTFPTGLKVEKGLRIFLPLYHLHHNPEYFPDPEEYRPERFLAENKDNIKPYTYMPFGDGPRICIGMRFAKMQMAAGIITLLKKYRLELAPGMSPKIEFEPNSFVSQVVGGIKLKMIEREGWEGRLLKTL

CYP6AE19 = target: T3, CYP6AE19 (Helicoverpa armigera, UniProt A0A068EVL0)
T3 construct: full ORF, baculovirus (Bac-to-Bac) in High Five cells, microsomes, co-expressed with H. armigera cytochrome P450 reductase (HaCPR)
T3 sequence (A0A068EVL0 1-528): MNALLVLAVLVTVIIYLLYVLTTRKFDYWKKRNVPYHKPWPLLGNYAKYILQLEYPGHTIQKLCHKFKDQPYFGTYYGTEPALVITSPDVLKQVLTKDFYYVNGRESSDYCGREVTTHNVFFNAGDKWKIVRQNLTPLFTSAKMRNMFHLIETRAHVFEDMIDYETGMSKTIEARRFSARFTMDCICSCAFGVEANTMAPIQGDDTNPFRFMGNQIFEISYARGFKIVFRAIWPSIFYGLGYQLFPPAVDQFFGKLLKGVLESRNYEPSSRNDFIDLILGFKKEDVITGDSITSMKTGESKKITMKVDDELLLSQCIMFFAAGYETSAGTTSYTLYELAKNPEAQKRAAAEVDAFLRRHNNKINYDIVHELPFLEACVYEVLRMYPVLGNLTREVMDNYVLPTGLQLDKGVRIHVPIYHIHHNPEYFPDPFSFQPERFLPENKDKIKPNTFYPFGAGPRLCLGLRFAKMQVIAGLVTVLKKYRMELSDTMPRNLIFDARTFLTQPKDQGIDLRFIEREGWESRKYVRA

Compound: CCCCCCCCCCCC(C)=O [2-tridecanone]
- substrate depletion, UPLC-MS/MS (CYP6AE14): 2-tridecanone was metabolized by three CYP6AE P450s: CYP6AE11, CYP6AE14, and CYP6AE19
- substrate depletion, UPLC-MS/MS (CYP6AE11): 2-tridecanone was metabolized by three CYP6AE P450s: CYP6AE11, CYP6AE14, and CYP6AE19
- substrate depletion, UPLC-MS/MS (CYP6AE19): 2-tridecanone was metabolized by three CYP6AE P450s: CYP6AE11, CYP6AE14, and CYP6AE19
